Data: patent US12257237B2 (priority 2017, dated 2025)

Assay: Drug tolerability (body weight) in DD013 dedifferentiated liposarcoma xenograft model
Assay type: in vivo, Athymic nude mice
Experimental: Experiments were performed with female Athymic nude mice, 9-10 weeks old obtained from Harlan Laboratories (Udine, Italy). They were maintained under Specific Pathogen Free conditions with constant temperature and humidity, according to the institutional guidelines.
Tumour growth mice was monitored two/three times a week (depending on tumour growth rate, to avoid unnecessary stress to the animals) by Vernier caliper. Mice were sacrificed when tumour reached a mean weight of 2±0.5 gr. The antitumour activity will be expressed as T/C %, where T and C were the mean tumour weight of treated and control groups, respectively. Mice were monitored daily and weighted at least two times a week. Tolerability was evaluated on the basis of body weight loss (BWL) and clinical observation.

[1] = EDO40 (40 mg/kg), day 23 from inoculum
[2] = EDO40 (40 mg/kg), day 26 from inoculum
[3] = EDO40 (40 mg/kg), day 33 from inoculum
[4] = EDO40 (40 mg/kg), day 36 from inoculum
[5] = EDO40 (40 mg/kg), day 40 from inoculum
[6] = EDO40 (40 mg/kg), day 43 from inoculum
[7] = EDO40 (40 mg/kg), day 50 from inoculum
[8] = EDO40 (40 mg/kg), day 54 from inoculum
[9] = EDO40 (40 mg/kg), day 58 from inoculum
[10] = EDO40 (40 mg/kg), day 62 from inoculum
[11] = EDO40 (40 mg/kg), day 65 from inoculum
[12] = EDO40 (40 mg/kg), day 69 from inoculum
[13] = EDO40 (40 mg/kg), day 72 from inoculum
[14] = EDO40 (40 mg/kg), day 75 from inoculum
[15] = EDO40 (40 mg/kg), day 79 from inoculum
[16] = EDO40 (40 mg/kg), day 83 from inoculum
[17] = EDO40 (40 mg/kg), day 87 from inoculum
[18] = EDO40 (40 mg/kg), day 90 from inoculum
[19] = EDO40 (40 mg/kg), day 94 from inoculum
[20] = EDO40 (40 mg/kg), day 98 from inoculum
[21] = EDO40 (40 mg/kg), day 100 from inoculum
[22] = EDO60 (60 mg/kg), day 23 from inoculum
[23] = EDO60 (60 mg/kg), day 26 from inoculum
[24] = EDO60 (60 mg/kg), day 29 from inoculum
[25] = EDO60 (60 mg/kg), day 33 from inoculum
[26] = EDO60 (60 mg/kg), day 36 from inoculum
[27] = EDO60 (60 mg/kg), day 40 from inoculum

Cn1c(CCCCCCC(=O)NO)nc2cc(N(CCCl)CCCl)ccc21 [EDO-S101, 7-(5-(bis(2-chloroethyl)amino)-1-methyl-1H-benzo[d]imidazol-2-yl)-N-hydroxyheptanamide]
rapid BWL of one mouse (sacrificed) (80 mg/kg group, between day 75 and 79 from inoculum): > 30% | BWL % [1]: 0.0% | Mouse body weight, Mean [1]: 23.6 g | BWL % [2]: −1.7% | Mouse body weight, Mean [2]: 23.2 g | Mouse body weight, Mean (EDO40 (40 mg/kg), day 29 from inoculum): 24.7 g | BWL % [3]: 2.4% | Mouse body weight, Mean [3]: 24.2 g | BWL % [4]: 4.1% | Mouse body weight, Mean [4]: 24.6 g | BWL % [5]: 6.1% | Mouse body weight, Mean [5]: 25.0 g | BWL % [6]: 6.2% | Mouse body weight, Mean [6]: 25.1 g | Mouse body weight, Mean (EDO40 (40 mg/kg), day 47 from inoculum): 26.0 g | BWL % [7]: 11.7% | Mouse body weight, Mean [7]: 26.4 g | BWL % [8]: 10.1% | Mouse body weight, Mean [8]: 26.0 g | BWL % [9]: 8.3% | Mouse body weight, Mean [9]: 25.6 g | BWL % [10]: 11.0% | Mouse body weight, Mean [10]: 26.2 g | BWL % [11]: 9.1% | Mouse body weight, Mean [11]: 25.8 g | BWL % [12]: 13.3% | Mouse body weight, Mean [12]: 26.8 g | BWL % [13]: 13.3% | Mouse body weight, Mean [13]: 26.8 g | BWL % [14]: 15.6% | Mouse body weight, Mean [14]: 27.3 g | BWL % [15]: 13.8% | Mouse body weight, Mean [15]: 26.9 g | BWL % [16]: 14.3% | Mouse body weight, Mean [16]: 27.0 g | BWL % [17]: 14.4% | Mouse body weight, Mean [17]: 27.0 g | BWL % [18]: 17.9% | Mouse body weight, Mean [18]: 27.8 g | BWL % [19]: 16.0% | Mouse body weight, Mean [19]: 27.4 g | BWL % [20]: 18.3% | Mouse body weight, Mean [20]: 27.9 g | BWL % [21]: 15.7% | Mouse body weight, Mean [21]: 27.3 g | BWL % [22]: 0.0% | Mouse body weight, Mean [22]: 23.3 g | BWL % [23]: −4.5% | Mouse body weight, Mean [23]: 22.3 g | BWL % [24]: 1.7% | Mouse body weight, Mean [24]: 23.7 g | BWL % [25]: −0.8% | Mouse body weight, Mean [25]: 23.1 g | BWL % [26]: 2.5% | Mouse body weight, Mean [26]: 23.9 g | BWL % [27]: −0.6% | Mouse body weight, Mean [27]: 23.2 g | Mouse body weight, Mean (EDO60 (60 mg/kg), day 43 from inoculum): 24.1 g | Mouse body weight, Mean (EDO60 (60 mg/kg), day 47 from inoculum): 25.2 g | Mouse body weight, Mean (EDO60 (60 mg/kg), day 50 from inoculum): 25.3 g | Mouse body weight, Mean (EDO60 (60 mg/kg), day 54 from inoculum): 25.6 g | Mouse body weight, Mean (EDO60 (60 mg/kg), day 58 from inoculum): 25.5 g | Mouse body weight, Mean (EDO60 (60 mg/kg), day 62 from inoculum): 25.5 g | Mouse body weight, Mean (EDO60 (60 mg/kg), day 69 from inoculum): 25.9 g | Mouse body weight, Mean (EDO60 (60 mg/kg), day 72 from inoculum): 26.3 g | Mouse body weight, Mean (EDO60 (60 mg/kg), day 75 from inoculum): 26.0 g | Mouse body weight, Mean (EDO60 (60 mg/kg), day 79 from inoculum): 24.8 g | Mouse body weight, Mean (EDO60 (60 mg/kg), day 83 from inoculum): 24.5 g | Mouse body weight, Mean (EDO60 (60 mg/kg), day 87 from inoculum): 24.6 g | Mouse body weight, Mean (EDO60 (60 mg/kg), day 90 from inoculum): 24.8 g | Mouse body weight, Mean (EDO60 (60 mg/kg), day 94 from inoculum): 25.3 g | Mouse body weight, Mean (EDO60 (60 mg/kg), day 98 from inoculum): 26.2 g | Mouse body weight, Mean (EDO60 (60 mg/kg), day 111 from inoculum): 25.6 g
